Measured values as given in US8124359B2, “Use of additives for the reduction of non-specific binding in assays” (Aokin AG, priority 2006, dated 2012).
Counter-ions that a name gives are not always drawn.

How the values were obtained:
anti-thyroxine [1] = test: Kinetic curve, rhodamine-labeled thyroxine/anti-thyroxine system in 0.5 M sodium benzoate with 5% isopropanol (Example 5); assay type: binding
Protocol: The protocol used is described below. The additive was sodium benzoate combined with an organic solvent (5% isopropanol). • 1. Use clean glassware, washed with isopropanol. • 2. Make a 0.5 M solution of sodium benzoate. • 3. Make a solution of 5% isopropanol in 0.5 M sodium benzoate (i.e., 2.5 ml 2-propanol in 47.5 mL 0.5 M aqueous sodium benzoate). This will be named BUFFER. • 4. […] 600 μl Buffer added to 1 mL curvette. The absorbance spectrum is measured using a UV-VIS spectrophotometer, 400 nm to 800 nm. This spectrum is used to define the absorbance of the background as zero and to control that it is actually zero. • 6. […] Measure the absorbance UV-VIS, 400 nm to 800 nm. […] Using a rotating polarometer with a 75 watt Xenon short-arc lamp. The rotating polarizer has three channels: Polarization (P), Total Intensity (V+H), and V−H. • 8. […] Measure P, V+H and V−H after short mixing and 30 second equilibration. […] Add 10 μl. Antibody solution (anti-thyroxine in PBS, dilution unknown, probably 5 mg in 1000 μl PBS and further diluted 1:10 in PBS). New volume is 3017 μl. Measure P, V+H and V−H after short mixing.

anti-thyroxine [2] = test: Velocity of the reaction between F-thyroxine and anti-thyroxine in the presence of BSA (Examples 8-16); assay type: binding; settings: BSA 0.1 μM, increasing additive concentrations
Protocol: (§1) The buffer and stock solutions described in Example 1 and the measurement methodology described in Example 2 were used.
• Fluorescein-Thyroxine, 1 nM • Anti-Thyroxine (1:300) • PBS with 5% 2-propanol • BSA 0.1 μM • Sodium benzoate in different concentrations
• Fluorescein-Thyroxine, 1 nM • Anti-Thyroxine (1:300) • PBS with 5% 2-propanol • BSA 0.1 μM • Sodium p-toluene sulfonate in different concentrations
• Fluorescein-Thyroxine, 1 nM • Anti-Thyroxine (1:300) • PBS with 4.75% 2-propanol • BSA 0.1 μM • Potassium benzoate in different concentrations
• Fluorescein-Thyroxine, 1 nM • Anti-Thyroxine (1:300) • PBS with 4.75% 2-propanol • BSA 0.1 μM • Sodium chloroacetate in different concentrations
• Fluorescein-Thyroxine, 1 nM • Anti-Thyroxine (1:300) • PBS with 4.75% 2-propanol • BSA 0.1 μM • Sodium dichloroacetate in different concentrations
[…]. The buffer and stock solutions described in Example 1 and the measurement methodology described in Example 2 were used.
• Fluorescein-Thyroxine, 1.5 nM • Anti-Thyroxine (1:300) • PBS with 4.75% 2-propanol • BSA 0.1 μM • Sodium Salicylate in different concentrations
• Fluorescein-Thyroxine, 1.5 nM • Anti-Thyroxine (1:300) • PBS with 4.75% 2-propanol • BSA 0.1 μM • N-Hydroxysuccinimide in different concentrations
• Fluorescein-Thyroxine, 1.5 nM • Anti-Thyroxine (1:300) • PBS with 4.75% 2-propanol • BSA 0.1 μM • Sodium Chloride in different concentrations

serum components [3] = test: Initial non-specific binding between F-thyroxine and serum components (Example 6); settings: experiments 6-3 through 6-7: serum, increasing sodium benzoate up to 1.0 M; reduced from 195
Protocol: as §1
(§2) • Fluorescein-Thyroxine (1 nM) • Anti-Thyroxine (1:300 dilution) • PBS with 10% 2-propanol • Benzoate in different concentrations • At t=0 s antibody was pipetted into the cuvette. • A 3 ml cuvette was used, the total volume in the cuvette was 2 ml. A small magnetic stirrer was used for mixing
(§3) In example 6, the reactions between F-Thyroxine and Anti-Thyroxine, which were carried out in the presence of serum under different reaction conditions, are compared (FIG. 4). There are seven different amounts of sodium benzoate, between 0 and 1.0 Molar in the cuvette. The reaction was performed in a phosphate buffered saline buffer containing 10% 2-propanol. The table in FIG. 4 lists the two important parameters.

anti-thyroxine [4] = test: Rate of the reaction between F-thyroxine and anti-thyroxine, with and without serum (Example 6); assay type: binding; settings: experiments 6-3 through 6-7: serum, increasing sodium benzoate up to 1.0 M
Protocol: as §1, §2, §3

serum components [5] = test: Non-specific binding of Rhodamine-Thyroxine to serum components (Example 17); settings: Rox-Thyroxine 1.5 nM, serum 1:500, PBS with 10% 2-propanol, sodium benzoate in different concentrations
Protocol: (§4) The serum was diluted 1:500 in PBS/10% 2-propanol The buffer and stock solutions, as well as the measurement methodology described in Example 5 were used.
(§5) • Rox-Thyroxine, 1.5 nM • Anti-Thyroxine (1:300) • PBS with 10% 2-propanol • Serum 1:500 • Sodium benzoate in different concentrations

anti-thyroxine [6] = test: Velocity of the reaction between Rhodamine-Thyroxine and anti-thyroxine in serum (Example 17); assay type: binding; settings: Rox-Thyroxine 1.5 nM, serum 1:500, PBS with 10% 2-propanol, increasing sodium benzoate
Protocol: as §4, §5

anti-thyroxine sera = test: Effect of additive on specific binding of F-thyroxine to anti-thyroxine in the presence of human sera (Example 4); settings: Buffer 2 (1.0 M sodium benzoate), 50 μl human sera, 20 or 50 μl anti-sera
Protocol: (§6) With reference to FIG. 2, experiments were performed to determine the effects of an additive on specific and non-specific binding. The additive used in the present example was sodium benzoate. The materials described in Example 1 and the measurement methodology described in Example 2 were used. In particular, 50 μl of human sera was added to 3000 μl of Buffer 2 or PBS at pH 7.5 (no additive control) and thoroughly mixed by pipetting for 1 to 10 seconds. To this was added 0 μl of unlabeled thyroxine and 0 μl, 20 μl or 50 μl of anti-sera stock solution. The mixture was thoroughly mixed by pipetting for 1 to 10 seconds. Then, 5 μl of the fluorescein-labeled thyroxine stock solution was added. This was followed by mixing for 1 to 10 seconds by pipetting. Then, d(V−H)/dt measurements were made versus time for between 10 and 600 seconds. This protocol was followed for Experiments 6-9 in Table 2.

anti-thyroxine [7] = test: Velocity of the reaction between F-thyroxine and anti-thyroxine in the absence of non-specific binding components (Example 7); settings: sodium benzoate increased to 1.0 molar; no serum or BSA; PBS with 5% 2-propanol, F-thyroxine 1 nM
Protocol: as §1
• Fluorescein-thyroxine, 1 nM • Anti-Thyroxine (1:300) • PBS with 5% 2-propanol • Sodium Benzoate in different concentrations

human sera = test: Effect of additive on non-specific binding of F-thyroxine in human sera (Example 4); settings: Buffer 2 (1.0 M sodium benzoate), 50 μl human sera
Protocol: as §6

[8] = tested on: polyclonal anti-thyroxine sera; test: Fluorescence polarization kinetic measurement, F-thyroxine/anti-thyroxine system (Example 3); assay type: binding; settings: Experiment 5: unlabeled thyroxine 0-20 μl, antiserum 20 μl, Buffer 1 (0.5 M sodium benzoate)
Protocol: An initial stock solution of anti-thyroxine sera was prepared. In particular, 1 ml of polyclonal anti-thyroxine sera containing 10 mg/ml IgG (Sigma) was diluted 1:5 in PBS buffer, pH 7.5. The final concentration of IgG in the stock solution was about 2 mg/ml.
An initial stock solution of fluorescein-labeled analyte (F-thyroxine) was prepared. Fluorescein-labeled thyroxine at 1248 g/mol in a lyophilized form was obtained from emp Biotech GmbH. First, 5 mg (4×10^−6 moles) of F-thyroxine was diluted to 10 ml in PBS to get a 4.1×10^−4 M solution of F-thyroxine. This solution was then further diluted 100-fold in PBS. The final concentration of F-thyroxine in the stock solution was about 4.1×10^−6 M.
The following is a protocol useful for performing a fluorescein polarization assay of the present invention. All steps are performed at ambient temperature. […] Pipette the mixture formed in step 5 up and down for 1 to 10 seconds and begin measuring polarization (P), Polarized Fluorescence Intensity Difference (V−H) or quenching (V+H total intensity) versus time for between 10 and 7200 seconds after end of mixing in a direct readout polarometer or between 0.1 and 7200 seconds after end of mixing with a stopped-flow polarometer. • 7. […] Against a standard curve, an unknown amount of thyroxine can be measured by comparison of initial rate measurement (speed of reaction) of unknown with the standard curve. […]

[9] = PBS with 4.75% 2-propanol, F-thyroxine 1.5 nM
[10] = PBS with 5% 2-propanol, F-thyroxine 1 nM
[11] = PBS with 4.75% 2-propanol, F-thyroxine 1 nM

## 5-carboxy-X-rhodamine-thyroxine [ROX-T4]
anti-thyroxine [1]; 0.5 M sodium benzoate, 5% isopropanol
  values of P, V−H and V+H over the 600 second time course: increase
anti-thyroxine [1]; 10 s after antibody
  V − H: 660
anti-thyroxine [1]; 13 s after antibody
  V − H: 860
anti-thyroxine [1]; 18 s after antibody
  V − H: 936
anti-thyroxine [1]; 20 s after antibody
  V − H: 1006
anti-thyroxine [1]; 26 s after antibody
  V − H: 1130
anti-thyroxine [1]; 30 s after antibody
  V − H: 1175
anti-thyroxine [1]; 33 s after antibody
  V − H: 1200
anti-thyroxine [1]; 44 s after antibody
  V − H: 1259
anti-thyroxine [1]; 49 s after antibody
  V − H: 1280
anti-thyroxine [1]; 53 s after antibody
  V − H: 1290
anti-thyroxine [1]; 62 s after antibody
  P (mP): 392 mP
anti-thyroxine [1]; 70 s after antibody
  P (mP): 395 mP
anti-thyroxine [1]; 78 s after antibody
  V − H: 1345
anti-thyroxine [1]; 83 s after antibody
  V + H: 3375
anti-thyroxine [1]; 95 s after antibody
  P (mP): 397 mP
anti-thyroxine [1]; 600 s after antibody
  P (mP): 398 mP
  V + H: 3320
  V − H: 1340
anti-thyroxine [1]; before antibody, time 0 s
  P (mP): 75 mP
  V + H: 2291
  V − H: 178

## O=C1CCC(=O)N1O [N-hydroxysuccinimide]
anti-thyroxine [2]; [9]
  rate of the antibody reaction: substantially slowed

## N=C(N)N [guanidine hydrochloride]
anti-thyroxine [2]; [10]
  rate of the antibody reaction: substantially slowed

## O=C([O-])c1ccccc1.[K+] [potassium benzoate]
anti-thyroxine [2]; [11]
  rate of the antibody reaction: substantially slowed

## O=C([O-])c1ccccc1.[Na+] [sodium benzoate]
Serum components [3]
  polarization value before the addition of antibody (t=0): 100 mP
anti-thyroxine [4]
  reaction rate relative to its value at zero additive: about 30%
anti-thyroxine [4]; PBS with 10% 2-propanol
  rate of change of P at t=5 s: 3.2 mP/s
Serum components [5]
  non-specific binding due to the presence of serum components: substantially reduced
anti-thyroxine [6]
  rate of the reaction: substantially slowed
anti-thyroxine sera
  effect on specific binding: does not inhibit specific binding
anti-thyroxine [7]
  reaction rate between F-thyroxine and antibody: slowed dramatically
anti-thyroxine [2]; [10]
  rate of the antibody reaction: substantially slowed
Human sera
  effect on non-specific binding: inhibits non-specific binding

## [Cl-].[Na+] [sodium chloride]
anti-thyroxine [2]; [9]
  rate of the antibody reaction: not substantially slowed

## O=C([O-])CCl.[Na+] [sodium chloroacetate]
anti-thyroxine [2]; [11]
  rate of the antibody reaction: substantially slowed

## O=C([O-])C(Cl)Cl.[Na+] [sodium dichloroacetate]
anti-thyroxine [2]; [11]
  rate of the antibody reaction: substantially slowed

## Cc1ccc(S(=O)(=O)O)cc1.[Na] [sodium p-tolulene sulfonate, sodium p-toluene sulfonate]
anti-thyroxine [2]; [10]
  rate of the antibody reaction: substantially slowed

## O=C([O-])c1ccccc1O.[Na+] [sodium salicylate]
anti-thyroxine [2]; [9]
  rate of the antibody reaction: substantially slowed

## N[C@@H](Cc1cc(I)c(Oc2cc(I)c(O)c(I)c2)c(I)c1)C(=O)O [thyroxine]
[8]
  competitive inhibition of the binding of F-thyroxine to its specific antibody: inhibition of the binding of F-thyroxine to its specific antibody by unlabeled thyroxine occurred
